For one test, the target named is T1, Coagulation factor XII (Homo sapiens, UniProt P00748).
T1 sequence (P00748 whole entry): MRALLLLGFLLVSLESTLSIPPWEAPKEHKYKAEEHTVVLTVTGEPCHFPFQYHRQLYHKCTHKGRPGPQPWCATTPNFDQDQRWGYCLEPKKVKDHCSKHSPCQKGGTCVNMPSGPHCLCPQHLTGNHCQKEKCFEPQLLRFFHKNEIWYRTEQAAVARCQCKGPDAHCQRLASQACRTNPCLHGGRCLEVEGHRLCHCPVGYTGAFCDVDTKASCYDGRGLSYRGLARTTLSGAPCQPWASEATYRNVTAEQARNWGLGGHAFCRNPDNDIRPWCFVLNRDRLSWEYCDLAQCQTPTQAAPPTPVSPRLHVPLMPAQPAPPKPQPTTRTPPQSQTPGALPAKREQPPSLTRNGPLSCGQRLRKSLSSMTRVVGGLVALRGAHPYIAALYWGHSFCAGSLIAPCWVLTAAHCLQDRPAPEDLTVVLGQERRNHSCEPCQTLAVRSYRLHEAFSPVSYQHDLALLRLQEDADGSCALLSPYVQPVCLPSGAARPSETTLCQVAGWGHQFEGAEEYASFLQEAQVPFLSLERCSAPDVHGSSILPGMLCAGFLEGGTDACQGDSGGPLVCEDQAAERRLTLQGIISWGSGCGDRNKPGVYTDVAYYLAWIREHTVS
The test is described as follows: Factor XIIa Dose Response Confirmation from Single Well HTS. [Related pubchem assays (depositor defined):AID701]. It is filed as functional.

For another test, the system named is Streptococcus. The test is described as follows: Group A Streptococcus viability loss, dose response, counter-screen for streptokinase expression inhibitor project, luminescence, BacTiterGlo (AID 1915).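 Note: potency for reduction of bacterial viability or growth.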 It is filed as functional, organism-based. In general terms: Counterscreens check selectivity or assay interference.
Test [1] is described as follows: inhibitors of intracellular T. cruzi replication, confirmation, NIH3T3 host cells, beta-gal luminescence (AID 2044).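 Note: intracellular parasites grown in NIH/3T3 mouse fibroblasts as host cells; luminescent beta-galactosidase reporter signal from transgenic T. cruzi replicating inside host cells; inhibitors lower the luminescence signal.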 It is filed as functional, cell-based.
Test [2] in a line: mammalian cell cytotoxicity, dose response, cytotoxicity control, plate reader, cherry-pick samples (AID 504397). It counts as functional, cell-based.
The nature of test [3]: cytotoxicity toward NIH3T3 fibroblasts, dose response, counter-screen, cell-based, ATP luminescence, mouse fibroblasts (AID 2010).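 Note: cells exposed to compound for about 90 hours before reading.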 It counts as functional.
Test [4] deals with Streptococcus sp. 'group A'. The test is described as follows: growth inhibition of control SK(-) GAS strain, dose response, counter-screen for streptokinase expression inhibitor project, luminescence, kanamycin, BacTiterGlo, confirmation (AID 1900). It counts as functional, organism-based.
The target in the next test is T2, CAAX prenyl protease 2 (Homo sapiens, UniProt Q9Y256).
T2 sequence (Q9Y256 whole entry): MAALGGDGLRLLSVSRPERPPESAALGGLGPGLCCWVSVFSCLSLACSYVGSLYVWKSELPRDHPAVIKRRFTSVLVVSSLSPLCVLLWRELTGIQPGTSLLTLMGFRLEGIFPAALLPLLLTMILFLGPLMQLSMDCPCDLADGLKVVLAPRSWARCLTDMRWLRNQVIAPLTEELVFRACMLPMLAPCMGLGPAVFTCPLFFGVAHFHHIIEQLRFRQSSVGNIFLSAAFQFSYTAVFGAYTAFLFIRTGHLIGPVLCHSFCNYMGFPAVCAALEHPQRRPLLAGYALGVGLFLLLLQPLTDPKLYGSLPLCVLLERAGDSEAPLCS
The test can be described thus: human Rce1 protease inhibitors, dose response, biochemical, yeast membranes, quenched-peptide fluorescence, cherry-pick (AID 588849).

The target of test [5] is T3, Kappa-type opioid receptor (Homo sapiens, UniProt P41145). The test can be described thus: SAR analysis of Antagonists of the Kappa Opioid Receptor (KOR) using an Image-Based Assay - Set 4. [Related pubchem assays (depositor defined):AID1777, AID1785]. It is filed as functional.
Another test deals with Mu-type opioid receptor (Homo sapiens, UniProt P35372). The test can be described thus: SAR Analysis of Antagonists of the MOR Receptor using an Image-Based Assay - Set 3. [Related pubchem assays (depositor defined):AID1777, AID1785, AID1786, AID1966, AID2133, AID2136, AID2284, AID2285, AID2420]. It counts as functional.
The target of test [6] is Delta-type opioid receptor (Homo sapiens, UniProt P41143). The test can be described thus: SAR Analysis of Antagonists of the DOR Receptor using an Image-Based Assay - Set 3. [Related pubchem assays (depositor defined):AID1777, AID1785]. It is filed as functional.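 Note: U2OS cells expressing DOR1 and beta-arrestin GFP stimulated with 100 nM SNC80; imaging of GFP-tagged beta-arrestin moving into spots after receptor activation.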
The target in test [7] is T3, Kappa-type opioid receptor. The test is described as follows: SAR analysis of small molecule antagonists of the kappa opioid receptor via a luminescent beta-arrestin assay - Set 4. [Related pubchem assays (depositor defined):AID1777, AID1778, AID1785, AID1786, AID1966, AID2133, AID2136, AID2285]. It counts as functional.
Test [8] has as its target 1-acylglycerol-3-phosphate O-acyltransferase ABHD5/Perilipin-5 (Homo sapiens, UniProt Q00G26+Q8WTS1). The test is described as follows: Luminescence-based biochemical high throughput dose response assay for inhibitors of the interaction of the lipase co-activator protein, abhydrolase domain containing 5 (ABHD5) with perilipin-5 (MLDP; PLIN5) (2K validation set). [Related pubchem assays (depositor defined):AID493035, AID493241].

The target in another test is Perilipin-1/ABHD5 (Homo sapiens, UniProt O60240+Q8WTS1). The test is described as follows: Luminescence-based biochemical high throughput dose response assay for inhibitors of the interaction of the lipase co-activator protein, abhydrolase domain containing 5 (ABHD5) with perilipin-1 (PLIN1) (2K validation set). [Related pubchem assays (depositor defined):AID493027, AID493057].

A further test addresses Troponin, cardiac muscle (Homo sapiens, UniProt P19429+P45379+P63316). The test can be described thus: Fluorescence-based biochemical high throughput dose response assay for activators of the calcium sensitivity of cardiac Regulated Thin Filaments (RTF). [Related pubchem assays (depositor defined):AID493008, AID493018, AID504382, AID504383]. It counts as protein-complex assay.

Data on five molecules can be found in ChEMBL document CHEMBL1201862, “PubChem BioAssay data set” (2004).

The source made the active and inactive calls.

T3 sequence (P41145 whole entry): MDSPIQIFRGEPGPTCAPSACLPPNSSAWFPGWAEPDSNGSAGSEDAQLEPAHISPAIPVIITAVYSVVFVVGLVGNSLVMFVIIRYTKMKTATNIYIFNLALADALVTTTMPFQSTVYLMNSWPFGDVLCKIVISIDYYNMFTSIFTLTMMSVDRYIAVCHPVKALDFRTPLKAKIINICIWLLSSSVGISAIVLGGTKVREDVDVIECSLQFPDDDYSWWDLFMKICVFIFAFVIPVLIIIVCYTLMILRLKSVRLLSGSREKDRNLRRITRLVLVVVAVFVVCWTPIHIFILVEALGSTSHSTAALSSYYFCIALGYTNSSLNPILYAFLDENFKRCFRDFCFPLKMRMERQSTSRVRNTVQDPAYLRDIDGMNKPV
Chain of Mu-type opioid receptor (P35372 whole entry): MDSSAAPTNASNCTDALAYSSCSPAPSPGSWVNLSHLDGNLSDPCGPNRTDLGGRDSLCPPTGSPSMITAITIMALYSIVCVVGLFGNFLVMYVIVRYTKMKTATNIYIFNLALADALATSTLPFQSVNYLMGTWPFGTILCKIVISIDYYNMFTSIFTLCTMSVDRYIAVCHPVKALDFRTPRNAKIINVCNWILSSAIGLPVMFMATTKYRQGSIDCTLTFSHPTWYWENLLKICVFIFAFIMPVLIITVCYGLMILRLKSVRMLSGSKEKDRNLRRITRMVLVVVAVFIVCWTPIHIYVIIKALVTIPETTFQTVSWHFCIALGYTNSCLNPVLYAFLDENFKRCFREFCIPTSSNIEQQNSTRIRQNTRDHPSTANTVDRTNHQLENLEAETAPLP
Chain of Perilipin-1/ABHD5 (Q8WTS1 whole entry, the tested form may be a part): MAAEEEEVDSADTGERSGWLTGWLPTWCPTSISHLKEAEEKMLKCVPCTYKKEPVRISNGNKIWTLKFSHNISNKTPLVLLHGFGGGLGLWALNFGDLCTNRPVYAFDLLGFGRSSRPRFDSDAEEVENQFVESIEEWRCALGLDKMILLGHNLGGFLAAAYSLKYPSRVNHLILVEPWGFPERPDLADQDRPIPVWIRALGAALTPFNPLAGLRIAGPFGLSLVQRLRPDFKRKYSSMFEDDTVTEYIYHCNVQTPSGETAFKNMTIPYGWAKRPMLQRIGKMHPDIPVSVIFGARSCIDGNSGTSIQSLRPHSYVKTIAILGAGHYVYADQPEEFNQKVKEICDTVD
Chain of Perilipin-1/ABHD5 (O60240 whole entry, the tested form may be a part): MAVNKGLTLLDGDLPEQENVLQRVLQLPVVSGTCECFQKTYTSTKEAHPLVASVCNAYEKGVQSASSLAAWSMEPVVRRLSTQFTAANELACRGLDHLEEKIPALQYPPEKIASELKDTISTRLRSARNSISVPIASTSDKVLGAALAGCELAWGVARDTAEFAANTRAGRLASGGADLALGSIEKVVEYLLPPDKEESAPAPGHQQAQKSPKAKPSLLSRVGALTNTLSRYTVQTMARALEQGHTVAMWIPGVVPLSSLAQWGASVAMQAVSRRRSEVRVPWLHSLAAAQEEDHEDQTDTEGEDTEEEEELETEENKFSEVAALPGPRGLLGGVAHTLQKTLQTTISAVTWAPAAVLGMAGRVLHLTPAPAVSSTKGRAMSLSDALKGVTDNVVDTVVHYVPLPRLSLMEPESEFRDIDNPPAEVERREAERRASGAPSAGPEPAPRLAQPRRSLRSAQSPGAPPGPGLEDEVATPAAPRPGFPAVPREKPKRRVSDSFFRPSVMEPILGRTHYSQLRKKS
Chain of 1-acylglycerol-3-phosphate O-acyltransferase ABHD5/Perilipin-5 (Q00G26 whole entry, the tested form may be a part): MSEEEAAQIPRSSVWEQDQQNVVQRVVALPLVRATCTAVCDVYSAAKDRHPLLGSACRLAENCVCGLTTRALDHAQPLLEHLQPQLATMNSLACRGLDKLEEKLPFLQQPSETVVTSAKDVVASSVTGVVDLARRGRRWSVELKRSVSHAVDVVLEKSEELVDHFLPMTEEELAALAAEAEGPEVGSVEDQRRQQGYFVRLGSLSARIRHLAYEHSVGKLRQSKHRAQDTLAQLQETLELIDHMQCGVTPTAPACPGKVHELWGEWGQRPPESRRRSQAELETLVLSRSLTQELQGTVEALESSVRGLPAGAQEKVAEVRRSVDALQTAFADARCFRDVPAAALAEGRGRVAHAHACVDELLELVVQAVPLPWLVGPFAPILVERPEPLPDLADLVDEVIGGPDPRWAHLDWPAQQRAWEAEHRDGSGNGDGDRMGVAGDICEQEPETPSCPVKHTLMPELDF
Chain of 1-acylglycerol-3-phosphate O-acyltransferase ABHD5/Perilipin-5 (Q8WTS1 whole entry, the tested form may be a part): as the sequence (Q8WTS1 whole entry, the tested form may be a part) above
Chain of Delta-type opioid receptor (P41143 whole entry): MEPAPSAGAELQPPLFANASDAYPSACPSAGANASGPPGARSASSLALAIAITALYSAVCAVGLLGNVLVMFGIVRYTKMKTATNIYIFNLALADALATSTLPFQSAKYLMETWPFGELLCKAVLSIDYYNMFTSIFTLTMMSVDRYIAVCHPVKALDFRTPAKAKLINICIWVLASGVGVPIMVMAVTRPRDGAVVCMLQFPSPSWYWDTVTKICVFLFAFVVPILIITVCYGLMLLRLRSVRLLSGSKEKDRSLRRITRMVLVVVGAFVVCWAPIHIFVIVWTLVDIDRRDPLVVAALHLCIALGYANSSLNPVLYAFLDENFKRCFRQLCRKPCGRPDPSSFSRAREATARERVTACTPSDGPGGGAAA

Regarding `CC(C)C(C)(C#N)NC(=O)CSc1nnc(C(F)(F)F)n1C` (centres undefined), the IC50 on Coagulation factor XII is > 50 µM (inactive).
Take `C/C(Cl)=C\Cn1c(O)c(/N=N/C(=N)S)c2cc(Br)ccc21`: the EC50 in the test with Streptococcus is 3.93 µM (active); in test [1], 1.32 µM (active); in test [3], > 30 µM (not active); in [4] it was 1.26 µM (active). Moreover, the concentration at half-maximal activity (AC50) in test [2] was 281 µM (active); at CAAX prenyl protease 2, 12.6 µM (active).
As to `CCC(C)(C)c1ccc(S(=O)(=O)NCc2ccc(C(=O)NCCN(Cc3ccccc3)C(C)C)cc2)cc1`, the IC50 in [5] was 0.57 µM (active); at Mu-type opioid receptor, > 32 µM (inactive); in test [6], > 32 µM (inactive); in test [7], 1.19 µM (active).
With `COC(=O)[C@@H](N)CS`, the IC50 in [8] was 4.64 µM (active); on Perilipin-1/ABHD5, 7.34 µM (active).
Regarding `Cc1ccnc2nc(C(=O)OCC(=O)NCCc3ccccc3)nn12`, the EC50 at Troponin, cardiac muscle was > 71.5 µM (inactive).

The term IC50 denotes the concentration that inhibits the measured activity by half. As a reminder, the EC50 is the concentration needed to bring the measured effect to its halfway point. As a reminder, the AC50 is the midpoint of the concentration-response curve, whichever way the signal moves.
